Where two headings read alike, the source gives them in different places.
Key:
[1] = tested on: Key Broadleaf and Grass Weed as well as Crop Species; test: Pre-Emergent Test I: preemergent herbicidal activity, herbicidal effect rating 14 days after treatment (Table 6); assay type: in vivo; details: 3.96 kg ai/ha
Procedure: Herbicidal evaluations were made visually on a scale of 0 to 100 where 0 represents no activity and 100 represents complete plant death. Pre-Emergent Test I: Seeds of test species were planted into round plastic pots (5-inch diameter) containing sandy loam soil. After planting, all pots were sub-irrigated 16 h prior to compound application. Compounds were dissolved in a 97:3 v/v mixture of acetone and DMSO and diluted to the appropriate concentration in a final application solution containing water, acetone, isopropanol, DMSO and Agri-dex (crop oil concentrate) in a 59:23:15:1.0:1.5 v/v ratio and 0.02% w/v (weight/volume) of Triton X-155 to obtain the spray solution containing the highest application rate. The high application rate was serial diluted with the above application solution to provide delivery of the compound at rates ½×, ¼× and ⅛× of the highest rate (equivalent to 4.0, 2.0, 1.0, and 0.5 kg/ha, respectively). Formulated compound (2.7 mL) was applied pipetted evenly over the soil surface followed by incorporation with water (15 mL). Following treatment, pots were returned to the greenhouse for the duration of the experiment. The greenhouse was programmed for an approximate 15 h photoperiod which was maintained at about 23-29° C. during the day and 22-28° C. during the night. Nutrients and water were added on a regular basis through surface irrigation and supplemental lighting was provided with overhead metal halide 1000-Watt lamps as necessary. Herbicidal effect ratings were obtained 14 days after treatment. All evaluations were made relative to appropriate controls on a scale of 0 to 100 where 0 represents no herbicidal effect and 100 represents plant death or lack of emergence from the soil and are presented as indicated in Table 4.

[2] = tested on: Wheat and Barley and weed species; test: Post-Emergent Test III: postemergent herbicidal activity in wheat and barley, visual rating after 21 d and probit GR20/GR50/GR80/GR90 (Tables 9-13); assay type: in vivo; details: for Visual Growth Reduction (%) 21 Days After Application BRSNW: winter, canola; for pest or weed control at 17.5 g/ha / pest or weed control at 35 g/ha / pest or weed control at 70 g/ha: post-emergence, 504 h
Procedure, shortened: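 Greenhouse plants (~18/17 °C, 14 h photoperiod) at second–third true leaf stage sprayed at 187 L/ha with a high rate and ½× to 1/16× serial dilutions. Visual injury 0–100% versus solvent-blank controls scored at 21 d; GR20, GR50, GR80 and GR90 derived by probit analysis across rates.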

SMILES: Nc1c(F)c(-c2cccc3c2OC(F)(F)O3)nc(C(=O)O)c1Cl [Compound 74]
- Visual Growth Reduction (%) 14 Days After Application ECHCG ([1]; barnyardgrass (Echinochloa crus-galli)): A (95-100)
- Visual Growth Reduction (%) 14 Days After Application SETFA ([1]; giant foxtail (Setaria faberi)): E (45-59)
- Visual Growth Reduction (%) 14 Days After Application IPOHE ([1]; ivyleaf morningglory (Ipomoea hederecea)): D (60-74)
- Visual Growth Reduction (%) 14 Days After Application HELAN ([1]; sunflower (Helianthus annuus)): A (95-100)
- Visual Growth Reduction (%) 14 Days After Application AVEFA ([1]; wild oats (Avena fatua)): D (60-74)

SMILES: Nc1c(F)c(-c2ccc3c(c2)OC(F)(F)O3)nc(C(=O)O)c1Cl [Compound 7]
- GR50 ALOMY ([2]; ALOMY black-grass (Alopecurus myosuroides), growth reduction of 50%, probit analysis): 16 g ai/ha
- GR80 ALOMY ([2]; ALOMY black-grass (Alopecurus myosuroides), growth reduction of 80%, probit analysis): 25 g ai/ha
- GR90 ALOMY ([2]; ALOMY black-grass (Alopecurus myosuroides), growth reduction of 90%, probit analysis): 34 g ai/ha
- GR50 APESV ([2]; APESV bentgrass (Apera spica-venti), growth reduction of 50%, probit analysis): 30 g ai/ha
- GR80 APESV ([2]; APESV bentgrass (Apera spica-venti), growth reduction of 80%, probit analysis): 114 g ai/ha
- GR90 APESV ([2]; APESV bentgrass (Apera spica-venti), growth reduction of 90%, probit analysis): >140 g ai/ha
- Visual Growth Reduction (%) 21 Days After Application BROTE ([2]; BROTE downy brome (Bromus tectorum), 17.5 g ai/ha): E (45-59)
- Visual Growth Reduction (%) 21 Days After Application BROTE ([2]; BROTE downy brome (Bromus tectorum), 35 g ai/ha): D (60-74)
- Visual Growth Reduction (%) 21 Days After Application BROTE ([2]; BROTE downy brome (Bromus tectorum), 70 g ai/ha): A (95-100)
- GR50 BROTE ([2]; BROTE downy brome (Bromus tectorum), growth reduction of 50%, probit analysis): 15 g ai/ha
- GR80 BROTE ([2]; BROTE downy brome (Bromus tectorum), growth reduction of 80%, probit analysis): 37 g ai/ha
- GR90 BROTE ([2]; BROTE downy brome (Bromus tectorum), growth reduction of 90%, probit analysis): 59 g ai/ha
- GR10 BRSNW ([2]; BRSNW oil seed rape, winter (Brassica napus), GR10, probit analysis): 0.5 g ai/ha
- GR20 BRSNW ([2]; BRSNW oil seed rape, winter (Brassica napus), growth reduction of 20%, probit analysis): 1 g ai/ha
- GR50 BRSNW ([2]; BRSNW oil seed rape, winter (Brassica napus), growth reduction of 50%, probit analysis): 5 g ai/ha
- GR80 BRSNW ([2]; BRSNW oil seed rape, winter (Brassica napus), growth reduction of 80%, probit analysis): 24 g ai/ha
- GR90 BRSNW ([2]; BRSNW oil seed rape, winter (Brassica napus), growth reduction of 90%, probit analysis): 53 g ai/ha
- Visual Growth Reduction (%) 21 Days After Application BRSNW ([2]; BRSNW oil seed rape, winter (Brassica napus), 17.5 g ai/ha): D (60-74)
- Visual Growth Reduction (%) 21 Days After Application BRSNW ([2]; BRSNW oil seed rape, winter (Brassica napus), 35 g ai/ha): C (75-84)
- Visual Growth Reduction (%) 21 Days After Application BRSNW ([2]; BRSNW oil seed rape, winter (Brassica napus), 70 g ai/ha): A (95-100)
- Visual Growth Reduction (%) 21 Days After Application GALAP ([2]; GALAP cleavers (Galium aparine), 17.5 g ai/ha): E (45-59)
- Visual Growth Reduction (%) 21 Days After Application GALAP ([2]; GALAP cleavers (Galium aparine), 35 g ai/ha): D (60-74)
- Visual Growth Reduction (%) 21 Days After Application GALAP ([2]; GALAP cleavers (Galium aparine), 70 g ai/ha): A (95-100)
- GR50 GALAP ([2]; GALAP cleavers (Galium aparine), growth reduction of 50%, probit analysis): 12 g ai/ha
- GR80 GALAP ([2]; GALAP cleavers (Galium aparine), growth reduction of 80%, probit analysis): 31 g ai/ha
- GR90 GALAP ([2]; GALAP cleavers (Galium aparine), growth reduction of 90%, probit analysis): 52 g ai/ha
- GR10 HORVS ([2]; HORVS barley, spring (crop), GR10, probit analysis): 1 g ai/ha
- GR20 HORVS ([2]; HORVS barley, spring (crop), growth reduction of 20%, probit analysis): 2 g ai/ha
- pest or weed control at 17.5 g/ha ([2]; Hordeum vulgare, HORVS barley, spring (crop), 17.5 g ai/ha, read-out: Visual Growth Reduction (%) 21 Days After Application HORVS): 75 to 84%
- pest or weed control at 35 g/ha ([2]; Hordeum vulgare, HORVS barley, spring (crop), 35 g ai/ha, read-out: Visual Growth Reduction (%) 21 Days After Application HORVS): 85 to 94%
- pest or weed control at 70 g/ha ([2]; Hordeum vulgare, HORVS barley, spring (crop), 70 g ai/ha, read-out: Visual Growth Reduction (%) 21 Days After Application HORVS): 85 to 94%
- Visual Growth Reduction (%) 21 Days After Application LAMPU ([2]; LAMPU purple deadnettle (Lamium purpureum), 17.5 g ai/ha): C (75-84)
- Visual Growth Reduction (%) 21 Days After Application LAMPU ([2]; LAMPU purple deadnettle (Lamium purpureum), 35 g ai/ha): B (85-94)
- Visual Growth Reduction (%) 21 Days After Application LAMPU ([2]; LAMPU purple deadnettle (Lamium purpureum), 70 g ai/ha): A (95-100)
- GR50 LAMPU ([2]; LAMPU purple deadnettle (Lamium purpureum), growth reduction of 50%, probit analysis): 3 g ai/ha
- GR80 LAMPU ([2]; LAMPU purple deadnettle (Lamium purpureum), growth reduction of 80%, probit analysis): 12 g ai/ha
- GR90 LAMPU ([2]; LAMPU purple deadnettle (Lamium purpureum), growth reduction of 90%, probit analysis): 27 g ai/ha
- GR50 LOLSS ([2]; LOLSS ryegrass, growth reduction of 50%, probit analysis): >140 g ai/ha
- GR80 LOLSS ([2]; LOLSS ryegrass, growth reduction of 80%, probit analysis): >140 g ai/ha
- GR90 LOLSS ([2]; LOLSS ryegrass, growth reduction of 90%, probit analysis): >140 g ai/ha
- Visual Growth Reduction (%) 21 Days After Application PHAMI ([2]; PHAMI lesser canary grass (Phalaris minor), 17.5 g ai/ha): C (75-84)
- Visual Growth Reduction (%) 21 Days After Application PHAMI ([2]; PHAMI lesser canary grass (Phalaris minor), 35 g ai/ha): B (85-94)
- Visual Growth Reduction (%) 21 Days After Application PHAMI ([2]; PHAMI lesser canary grass (Phalaris minor), 70 g ai/ha): A (95-100)
- GR50 PHAMI ([2]; PHAMI lesser canary grass (Phalaris minor), growth reduction of 50%, probit analysis): 10 g ai/ha
- GR80 PHAMI ([2]; PHAMI lesser canary grass (Phalaris minor), growth reduction of 80%, probit analysis): 24 g ai/ha
- GR90 PHAMI ([2]; PHAMI lesser canary grass (Phalaris minor), growth reduction of 90%, probit analysis): 39 g ai/ha
- GR50 SETVI ([2]; SETVI green foxtail (Setaria viridis), growth reduction of 50%, probit analysis): 6 g ai/ha
- GR80 SETVI ([2]; SETVI green foxtail (Setaria viridis), growth reduction of 80%, probit analysis): 13 g ai/ha
- GR90 SETVI ([2]; SETVI green foxtail (Setaria viridis), growth reduction of 90%, probit analysis): 21 g ai/ha
- Visual Growth Reduction (%) 21 Days After Application SINAR ([2]; SINAR wild mustard (Sinapis arvensis), 17.5 g ai/ha): C (75-84)
- Visual Growth Reduction (%) 21 Days After Application SINAR ([2]; SINAR wild mustard (Sinapis arvensis), 35 g ai/ha): B (85-94)
- Visual Growth Reduction (%) 21 Days After Application SINAR ([2]; SINAR wild mustard (Sinapis arvensis), 70 g ai/ha): A (95-100)
- GR50 SINAR ([2]; SINAR wild mustard (Sinapis arvensis), growth reduction of 50%, probit analysis): 3 g ai/ha
- GR80 SINAR ([2]; SINAR wild mustard (Sinapis arvensis), growth reduction of 80%, probit analysis): 15 g ai/ha
- GR90 SINAR ([2]; SINAR wild mustard (Sinapis arvensis), growth reduction of 90%, probit analysis): 36 g ai/ha
- GR10 TRZAS ([2]; TRZAS wheat, spring (crop), GR10, probit analysis): 2 g ai/ha
- GR20 TRZAS ([2]; TRZAS wheat, spring (crop), growth reduction of 20%, probit analysis): 3 g ai/ha
- pest or weed control at 17.5 g/ha ([2]; Triticum aestivum, TRZAS wheat, spring (crop), 17.5 g ai/ha, read-out: Visual Growth Reduction (%) 21 Days After Application TRZAS): 75 to 84%
- pest or weed control at 35 g/ha ([2]; Triticum aestivum, TRZAS wheat, spring (crop), 35 g ai/ha, read-out: Visual Growth Reduction (%) 21 Days After Application TRZAS): 85 to 94%
- pest or weed control at 70 g/ha ([2]; Triticum aestivum, TRZAS wheat, spring (crop), 70 g ai/ha, read-out: Visual Growth Reduction (%) 21 Days After Application TRZAS): 85 to 94%
- pest or weed control at 17.5 g/ha ([2]; ALOMY black-grass (Alopecurus myosuroides), 17.5 g ai/ha, read-out: Visual Growth Reduction (%) 21 Days After Application ALOMY): 45 to 59%
- pest or weed control at 35 g/ha ([2]; ALOMY black-grass (Alopecurus myosuroides), 35 g ai/ha, read-out: Visual Growth Reduction (%) 21 Days After Application ALOMY): 85 to 94%
- pest or weed control at 70 g/ha ([2]; ALOMY black-grass (Alopecurus myosuroides), 70 g ai/ha, read-out: Visual Growth Reduction (%) 21 Days After Application ALOMY): 95 to 100%
- pest or weed control at 17.5 g/ha ([2]; APESV bentgrass (Apera spica-venti), 17.5 g ai/ha, read-out: Visual Growth Reduction (%) 21 Days After Application APESV): 45 to 59%
- pest or weed control at 35 g/ha ([2]; APESV bentgrass (Apera spica-venti), 35 g ai/ha, read-out: Visual Growth Reduction (%) 21 Days After Application APESV): 60 to 74%
- pest or weed control at 70 g/ha ([2]; APESV bentgrass (Apera spica-venti), 70 g ai/ha, read-out: Visual Growth Reduction (%) 21 Days After Application APESV): 75 to 84%
- pest or weed control at 17.5 g/ha ([2]; LOLSS ryegrass, 17.5 g ai/ha, read-out: Visual Growth Reduction (%) 21 Days After Application LOLSS): 30 to 44%
- pest or weed control at 35 g/ha ([2]; LOLSS ryegrass, 35 g ai/ha, read-out: Visual Growth Reduction (%) 21 Days After Application LOLSS): 45 to 59%
- pest or weed control at 70 g/ha ([2]; LOLSS ryegrass, 70 g ai/ha, read-out: Visual Growth Reduction (%) 21 Days After Application LOLSS): 60 to 74%
- pest or weed control at 17.5 g/ha ([2]; SETVI green foxtail (Setaria viridis), 17.5 g ai/ha, read-out: Visual Growth Reduction (%) 21 Days After Application SETVI): 60 to 74%
- pest or weed control at 35 g/ha ([2]; SETVI green foxtail (Setaria viridis), 35 g ai/ha, read-out: Visual Growth Reduction (%) 21 Days After Application SETVI): 75 to 84%
- pest or weed control at 70 g/ha ([2]; SETVI green foxtail (Setaria viridis), 70 g ai/ha, read-out: Visual Growth Reduction (%) 21 Days After Application SETVI): 85 to 94%
